According to patent publication US8586505B2 (SDS Biotech K. K., priority 2009, dated 2013):

Key:
Type in all cases: in vivo
[1] = tested on: Sphaerotheca fuliginea; test: Test of examining control effect on Sphaerotheca fuliginea (potted cucumber plants); settings: Podosphaera fuliginea, 336 h; 10% wettable powder adjusted to 125 ppm, 15 ml/pot sprayed on potted cucumber plants one day before spray inoculation; assessed after 14 days in greenhouse; read-out: Determination of control effect (preventive value) on Sphaerotheca fuliginea
Summary of the method: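 Control effect rated high at preventive value 60–100% and low below 60%, from lesion area relative to untreated plants 14 days after spray inoculation with S. fuliginea (1.0×10^5 cells/ml). Compound applied at 125 ppm as wettable-powder spray one day before inoculation, on 2nd-leaf-stage Sagamihanjiro cucumber.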

[2] = tested on: Phytophthora infestans; test: whole plant or invertebrate; settings: in Solanum lycopersicum, 96 h, read-out: Determination of control effect (preventive value)
[3] = tested on: Pseudoperonospora cubensis; test: Test of examining control effect on Pseudoperonospora cubensis (potted cucumber plants); settings: 96 h, 10% wettable powder adjusted to 125 ppm, 15 ml/pot sprayed on potted cucumber plants one day before spray inoculation, assessed after 1 day wet chamber and 3 days greenhouse, read-out: Determination of control effect (preventive value) on Pseudoperonospora cubensis
Summary of the method: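 Preventive treatment: 125 ppm sample agent solution (from 10% wettable powder) sprayed at 15 ml/pot on 2.5-leaf Sagamihanjiro cucumbers, then P. cubensis inoculated next day at 1.0×10^4 cells/ml. Incubation was 1 day wet at 21° C plus 3 days greenhouse. Lesion area rate compared with untreated gives preventive value (≥60% high).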

In the case of `COCc1ccccc1C#CCCNc1ncnc(Cl)c1C` [compound 363], the pest or weed control at 125 µg/mL [1] was 60 to 100%, the pest or weed control at 125 ppm [2] was 60 to 100% and the pest or weed control at 125 µg/mL [3] was 60 to 100%.

`COCOc1ccc(C#CCCNc2ncnc3ccccc23)cc1` [compound 121] was tested, and the pest or weed control at 125 µg/mL [1] was 60 to 100%, the pest or weed control at 125 ppm [2] was 60 to 100% and the pest or weed control at 125 µg/mL [3] was 60 to 100%.

For `COc1ccccc1C#CCCNc1ncnc2ccccc12` [compound 115], the pest or weed control at 125 µg/mL [1] was 60 to 100%, the pest or weed control at 125 ppm [2] was 60 to 100% and the pest or weed control at 125 µg/mL [3] was 60 to 100%.

For `COCc1ccccc1C#CCCNc1ncnc2cc(Cl)ccc12` [compound 312], the pest or weed control at 125 µg/mL [1] was 60 to 100%, the pest or weed control at 125 ppm [2] was 0 to 60% and the pest or weed control at 125 µg/mL [3] was 60 to 100%.

For `CCc1ccccc1C#CCCNc1ncnc2ccccc12` [compound 103], the pest or weed control at 125 µg/mL [1] was 60 to 100%, the pest or weed control at 125 ppm [2] was 60 to 100% and the pest or weed control at 125 µg/mL [3] was 60 to 100%.

`Cc1cc(NCCC#Cc2ccc(Cl)cc2C(F)(F)F)ncn1` [compound 359] gave a pest or weed control at 125 µg/mL [1] of 0 to 60%, a pest or weed control at 125 ppm [2] of 0 to 60% and a pest or weed control at 125 µg/mL [3] of 0 to 60%.

`FC(F)(F)c1ccc(C#CCCNc2ncnc3ccccc23)cc1Cl` [compound 177] showed a pest or weed control at 125 µg/mL [1] of 60 to 100%, a pest or weed control at 125 ppm [2] of 60 to 100% and a pest or weed control at 125 µg/mL [3] of 60 to 100%.

`CC(C)(C)[Si](C)(C)OCc1nc(C#CCCNc2ncnc3sccc23)cs1` [compound 71] gave a pest or weed control at 125 µg/mL [1] of 60 to 100%, a pest or weed control at 125 ppm [2] of 60 to 100% and a pest or weed control at 125 µg/mL [3] of 60 to 100%.

`CC(CC#Cc1ccc(Cl)cc1C(F)(F)F)Nc1ncnc(C(F)(F)F)c1Cl` (stereo not drawn) [compound 388] gave a pest or weed control at 125 µg/mL [1] of 60 to 100%, a pest or weed control at 125 ppm [2] of 0 to 60% and a pest or weed control at 125 µg/mL [3] of 60 to 100%.

Work on `COCc1ccccc1C#CCCNc1ncnc2cccc(F)c12` [compound 318] yielded a pest or weed control at 125 µg/mL [1] of 60 to 100%, a pest or weed control at 125 ppm [2] of 60 to 100% and a pest or weed control at 125 µg/mL [3] of 60 to 100%.

`N#CCc1ccccc1C#CCCNc1ncnc2ccccc12` [compound 147] showed a pest or weed control at 125 µg/mL [1] of 60 to 100%, a pest or weed control at 125 ppm [2] of 60 to 100% and a pest or weed control at 125 µg/mL [3] of 60 to 100%.

For `CC(CC#Cc1ccc(Cl)c(C(F)(F)F)c1)Nc1ncnc2ccccc12` (stereo not drawn) [compound 284], the pest or weed control at 125 µg/mL [1] was 60 to 100%, the pest or weed control at 125 ppm [2] was 0 to 60% and the pest or weed control at 125 µg/mL [3] was 60 to 100%.

In the case of `FC(F)OCc1ccccc1C#CCCNc1ncnc2ccccc12` [compound 134], the pest or weed control at 125 µg/mL [1] was 60 to 100%, the pest or weed control at 125 ppm [2] was 60 to 100% and the pest or weed control at 125 µg/mL [3] was 60 to 100%.

With `Clc1cccc(C#CCCNc2ncnc3sccc23)c1` [compound 15] the pest or weed control at 125 µg/mL [1] was 60 to 100%, the pest or weed control at 125 ppm [2] was 0 to 60% and the pest or weed control at 125 µg/mL [3] was 60 to 100%.

For `C(#Cc1csc(N2CCCCC2)n1)CCNc1ncnc2ccccc12` [compound 228], the pest or weed control at 125 µg/mL [1] was 0 to 60%, the pest or weed control at 125 ppm [2] was 0 to 60% and the pest or weed control at 125 µg/mL [3] was 60 to 100%.

With `COc1cccc2c(NC(C)CC#Cc3ccc(F)cc3C(F)(F)F)ncnc12` (stereo not drawn) [compound 353] the pest or weed control at 125 µg/mL [1] was 60 to 100%, the pest or weed control at 125 ppm [2] was 0 to 60% and the pest or weed control at 125 µg/mL [3] was 60 to 100%.

`C(#CC1CC1)CCNc1ncnc2ccccc12` [compound 90] was tested, and the pest or weed control at 125 µg/mL [1] was 60 to 100%, the pest or weed control at 125 ppm [2] was 0 to 60% and the pest or weed control at 125 µg/mL [3] was 60 to 100%.

`C#CCOCc1nc(C#CCCNc2ncnc3sccc23)cs1` [compound 74] was tested, and the pest or weed control at 125 µg/mL [1] was 60 to 100%, the pest or weed control at 125 ppm [2] was 60 to 100% and the pest or weed control at 125 µg/mL [3] was 60 to 100%.

With `C=CC(CC#Cc1ccc(F)cc1)Nc1ncnc2ccccc12` (stereo not drawn) [compound 297] the pest or weed control at 125 µg/mL [1] was 60 to 100%, the pest or weed control at 125 ppm [2] was 0 to 60% and the pest or weed control at 125 µg/mL [3] was 60 to 100%.

`COCc1ccc(F)cc1C#CCCNc1ncnc2ccccc12` [compound 142] gave a pest or weed control at 125 µg/mL [1] of 60 to 100%, a pest or weed control at 125 ppm [2] of 60 to 100% and a pest or weed control at 125 µg/mL [3] of 60 to 100%.

`CC(CC#Cc1ccc(Cl)cc1C(F)(F)F)Nc1ncnc(C(C)Cl)c1Cl` (stereo not drawn) [compound 383] showed a pest or weed control at 125 µg/mL [1] of 60 to 100%, a pest or weed control at 125 ppm [2] of 0 to 60% and a pest or weed control at 125 µg/mL [3] of 60 to 100%.

`COCc1ccccc1C#CCCNc1ncnc2ccc(SC)cc12` [compound 332] showed a pest or weed control at 125 µg/mL [1] of 0 to 60%, a pest or weed control at 125 ppm [2] of 0 to 60% and a pest or weed control at 125 µg/mL [3] of 60 to 100%.

Work on `CC(C)OCc1ccccc1C#CCCNc1ncnc2ccccc12` [compound 154] yielded a pest or weed control at 125 µg/mL [1] of 60 to 100%, a pest or weed control at 125 ppm [2] of 60 to 100% and a pest or weed control at 125 µg/mL [3] of 60 to 100%.

`COCc1ccccc1C#CCCNc1ncnc2ccc(OC)cc12` [compound 329] gave a pest or weed control at 125 µg/mL [1] of 60 to 100%, a pest or weed control at 125 ppm [2] of 60 to 100% and a pest or weed control at 125 µg/mL [3] of 60 to 100%.

For `C(#Cc1ccccc1C1OCCO1)CCNc1ncnc2ccccc12` [compound 155], the pest or weed control at 125 µg/mL [1] was 0 to 60%, the pest or weed control at 125 ppm [2] was 0 to 60% and the pest or weed control at 125 µg/mL [3] was 60 to 100%.
